From PubChem BioAssay (NCI)
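Five concentrations, 48 hours, 96-well plates. GI50 is the concentration that inhibits growth by half. TGI: concentration producing complete growth inhibition.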

Columns and labels:
Assay in all cases: NCI-60 cell line screen, 48 h
[1] = test system: OVCAR-5 ovarian
[2] = test system: HOP-62 NSCLC
[3] = test system: MDA-MB-435
[4] = test system: COLO 205 colon
[5] = test system: SN12C renal
[6] = test system: SF-295 CNS
[7] = test system: OVCAR-3 ovarian
[8] = test system: RXF 393 renal
[9] = test system: HT29 colon
[10] = test system: HCC-2998 colon
[11] = test system: DU-145 prostate
[12] = test system: SNB-19 CNS
[13] = test system: 786-0 renal
[14] = test system: MOLT-4 leukemia
[15] = test system: OVCAR-4 ovarian
[16] = test system: HCT-15 colon
[17] = test system: ACHN renal
[18] = test system: SK-MEL-5 melanoma
[19] = test system: UACC-257 melanoma
[20] = test system: OVCAR-8 ovarian
[21] = test system: M14 melanoma
[22] = test system: K-562 leukemia
[23] = test system: SW-620 colon
[24] = test system: RPMI-8226 leukemia
[25] = test system: HOP-92 NSCLC
[26] = test system: HCT-116 colon
[27] = test system: SK-OV-3 ovarian
[28] = test system: NCI/ADR-RES ovarian
[29] = test system: A498 renal
[30] = test system: PC-3 prostate
[31] = test system: CCRF-CEM leukemia
[32] = test system: CAKI-1 renal
[33] = test system: SF-268 CNS
[34] = test system: U251 CNS
[35] = test system: BT-549 breast
[36] = test system: T-47D breast
[37] = test system: KM12 colon
[38] = test system: MCF7 breast
[39] = test system: SNB-75 CNS
[40] = test system: NCI-H522 lung
[41] = test system: LOX IMVI melanoma
[42] = test system: UACC-62 melanoma
[43] = test system: SK-MEL-28 melanoma
[44] = test system: SK-MEL-2 melanoma
[45] = test system: SF-539 CNS
[46] = test system: IGROV1 ovarian
[47] = test system: SR leukemia
[48] = test system: NCI-H460 lung
[49] = test system: UO-31 renal
[50] = test system: NCI-H23 lung
[51] = test system: NCI-H226 lung
[52] = test system: A549 NSCLC
[53] = test system: MALME-3M melanoma
[54] = test system: TK-10 renal
[55] = test system: HL-60(TB) leukemia
[56] = test system: HS 578T breast
[57] = test system: MDA-MB-231 breast
[58] = test system: EKVX NSCLC

## Cc1ccc2c(n1)C(=O)C(Cl)=C(Nc1cccc(C(F)(F)F)c1)C2=O
[1]
  GI50: 6030 nM
  TGI: 22100 nM
[2]
  GI50: 17000 nM
  TGI: 31800 nM
[3]
  GI50: 1950 nM
  TGI: 3910 nM
[4]
  GI50: 1820 nM
  TGI: 3780 nM
[5]
  GI50: 2160 nM
  TGI: 5660 nM
[6]
  GI50: 16300 nM
  TGI: 31200 nM
[7]
  GI50: 1680 nM
  TGI: 3110 nM
[8]
  GI50: 1610 nM
  TGI: 3000 nM
[9]
  GI50: 2600 nM
  TGI: 6630 nM
[10]
  GI50: 2600 nM
  TGI: 6480 nM
[11]
  GI50: 1800 nM
  TGI: 3310 nM
[12]
  GI50: 16000 nM
  TGI: 45300 nM
[13]
  GI50: 1800 nM
  TGI: 3550 nM
[14]
  GI50: 1690 nM
  TGI: 5380 nM
[15]
  GI50: 1560 nM
  TGI: 3270 nM
[16]
  GI50: 1660 nM
  TGI: 3550 nM
[17]
  GI50: 1780 nM
  TGI: 3310 nM
[18]
  GI50: 2750 nM
  TGI: 7840 nM
[19]
  GI50: 1650 nM
  TGI: 3240 nM
[20]
  GI50: 2680 nM
  TGI: 8930 nM
[21]
  GI50: 1920 nM
  TGI: 4390 nM
[22]
  GI50: 310 nM
  TGI: 1300 nM
[23]
  GI50: 2050 nM
  TGI: 4890 nM
[24]
  GI50: 1920 nM
  TGI: 5910 nM
[25]
  GI50: 1910 nM
  TGI: 3890 nM
[26]
  GI50: 1510 nM
  TGI: 3220 nM
[27]
  GI50: 14200 nM
  TGI: 27600 nM
[28]
  GI50: 2650 nM
  TGI: 7880 nM
[29]
  GI50: 13800 nM
  TGI: 27900 nM
[30]
  GI50: 2900 nM
  TGI: 11500 nM
[31]
  GI50: 1460 nM
  TGI: 4710 nM
[32]
  GI50: 1580 nM
  TGI: 3010 nM
[33]
  GI50: 4760 nM
  TGI: 19600 nM
[34]
  GI50: 6450 nM
  TGI: 24800 nM
[35]
  GI50: 2160 nM
  TGI: 5470 nM
[36]
  GI50: 1930 nM
  TGI: 4800 nM
[37]
  GI50: 15900 nM
  TGI: 32300 nM
[38]
  GI50: 1850 nM
  TGI: 4660 nM
[39]
  GI50: 13000 nM
  TGI: 27400 nM
[40]
  GI50: 2030 nM
  TGI: 5120 nM
[41]
  GI50: 1510 nM
  TGI: 3330 nM
[42]
  GI50: 4280 nM
  TGI: 18400 nM
[43]
  GI50: 1950 nM
  TGI: 3660 nM
[44]
  GI50: 2380 nM
  TGI: 5730 nM
[45]
  GI50: 3180 nM
  TGI: 10300 nM
[46]
  GI50: 1870 nM
  TGI: 3600 nM
[47]
  GI50: 1560 nM
  TGI: 5000 nM
[48]
  GI50: 18400 nM
  TGI: 40800 nM
[49]
  GI50: 1540 nM
  TGI: 2950 nM
[50]
  GI50: 1820 nM
  TGI: 4670 nM
[51]
  GI50: 2570 nM
  TGI: 11500 nM
[52]
  GI50: 20100 nM
  TGI: 50000 nM
[53]
  GI50: 1790 nM
  TGI: 3610 nM
[54]
  GI50: 2010 nM
  TGI: 3520 nM
[55]
  GI50: 1500 nM
  TGI: 3680 nM
[56]
  GI50: 15100 nM
  TGI: 85600 nM

## Oc1cccc2ccc(-c3nnc(SCc4ccc(O)c5ncccc45)o3)nc12
[1]
  GI50: 2170 nM
  TGI: > 100000 nM
[2]
  GI50: 369 nM
  TGI: > 40200 nM
[3]
  GI50: 294 nM
  TGI: > 100000 nM
[4]
  GI50: 1730 nM
  TGI: 4960 nM
[5]
  GI50: 280 nM
  TGI: > 100000 nM
[6]
  GI50: 315 nM
  TGI: > 25700 nM
[8]
  GI50: 350 nM
  TGI: > 24500 nM
[9]
  GI50: 4910 nM
  TGI: > 100000 nM
[10]
  GI50: 643 nM
  TGI: > 100000 nM
[11]
  GI50: 117 nM
  TGI: > 100000 nM
[12]
  GI50: 273 nM
  TGI: > 100000 nM
[13]
  GI50: 627 nM
  TGI: > 100000 nM
[14]
  GI50: 457 nM
  TGI: > 100000 nM
[15]
  GI50: 2000 nM
  TGI: > 100000 nM
[16]
  GI50: 158 nM
  TGI: > 100000 nM
[17]
  GI50: 419 nM
  TGI: > 100000 nM
[18]
  GI50: 326 nM
  TGI: 1550 nM
[19]
  GI50: 413 nM
  TGI: 4510 nM
[20]
  GI50: 302 nM
  TGI: > 100000 nM
[57]
  GI50: 1650 nM
  TGI: > 100000 nM
[21]
  GI50: 332 nM
  TGI: 79500 nM
[22]
  GI50: 147 nM
  TGI: > 100000 nM
[23]
  GI50: 452 nM
  TGI: > 100000 nM
[24]
  GI50: 266 nM
  TGI: > 100000 nM
[25]
  GI50: 173 nM
  TGI: 707 nM
[26]
  GI50: 71 nM
  TGI: > 100000 nM
[27]
  GI50: 761 nM
  TGI: 5280 nM
[28]
  GI50: 696 nM
  TGI: > 100000 nM
[29]
  GI50: 1200 nM
  TGI: 7320 nM
[30]
  GI50: 175 nM
  TGI: > 100000 nM
[31]
  GI50: 329 nM
  TGI: > 100000 nM
[32]
  GI50: 428 nM
  TGI: > 100000 nM
[58]
  GI50: 807 nM
  TGI: > 100000 nM
[33]
  GI50: 226 nM
  TGI: > 100000 nM
[34]
  GI50: 103 nM
  TGI: > 100000 nM
[35]
  GI50: 110 nM
  TGI: > 20700 nM
[36]
  GI50: 428 nM
  TGI: > 100000 nM
[37]
  GI50: 432 nM
  TGI: > 100000 nM
[38]
  GI50: 367 nM
  TGI: > 32400 nM
[39]
  GI50: 177 nM
  TGI: > 22600 nM
[40]
  GI50: 440 nM
  TGI: 5540 nM
[41]
  GI50: 120 nM
  TGI: > 100000 nM
[42]
  GI50: 467 nM
  TGI: 19700 nM
[43]
  GI50: 492 nM
  TGI: > 100000 nM
[44]
  GI50: 513 nM
  TGI: 2700 nM
[45]
  GI50: 275 nM
  TGI: > 100000 nM
[46]
  GI50: 457 nM
  TGI: > 100000 nM
[47]
  GI50: 338 nM
  TGI: > 100000 nM
[48]
  GI50: 39.3 nM
  TGI: 11400 nM
[49]
  GI50: 299 nM
  TGI: 7240 nM
[50]
  GI50: 268 nM
  TGI: > 100000 nM
[51]
  GI50: 2410 nM
  TGI: > 100000 nM
[52]
  GI50: 204 nM
  TGI: > 100000 nM
[53]
  GI50: 365 nM
  TGI: 3810 nM
[54]
  GI50: 1990 nM
  TGI: > 27100 nM
[55]
  GI50: 583 nM
  TGI: > 100000 nM
[56]
  GI50: 181 nM
